According to patent US8106155B2, “Test kit for determining process for determining antibiotics containing a beta-lactam ring in a biological fluid” (Neogen Corporation, priority 1998, dated 2012):

Experiments:
[1] = target: T1, BlaR-CTD receptor (Bacillus licheniformis, UniProt P12287); assay: 9-minute test: BlaR-CTD coupled to gold beads, membrane test device, milk; type: binding; conditions: 47° C.; for concentration detected in a sample of milk: test carried out in 9 minutes, positive when 1st band less intense than 2nd band; for Intensity 1st band: 9-minute test, scale 0 to 10, reference band 6
T1 construct: uses the BlaR-CTD receptor coupled to gold beads
Experimental: (§1) This example illustrates the detection in milk of antibiotics containing a β-lactam ring, which are controlled by the health authorities. The test described in this example uses the BlaR-CTD receptor coupled to gold beads which serve as labelling agents, and uses a support in the form of a test device comprising a solid support to which membranes are attached.
6 samples of fresh milk containing 0; 4; 6; 8; 10 and 12 ppb of cephapirin, respectively, are prepared. Each of these solutions is then analyzed in the following way.
(§2) A 200 μl aliquot sample of milk and 45.27 μl of solution prepared in Example 1.1.3 are taken and placed in a glass flask. This mixture is incubated for 7 minutes at 47° C. A test device is taken and placed vertically in the glass flask such that the first end of the test device is in contact with the mixture and such that the second end rests on the wall of the glass flask. The mixture is left to migrate on the test device, while incubating the assembly for 2 minutes at 47° C.
(§3) An intensity value ranging from 0 to 10 is attributed to the bands detected, the value 10 being given to the most intense band and the value 0 being given to the least intense band. According to this scale, a value of 6 is assigned to the reference band. The intensity of the signal observed in the first band is inversely proportional to the amount of cephapirin present in the sample.
(§4) In this example, when the first band has an intesity less than that of the second band, the test is considered as being positive.

[2] = target: T2, BlaR-CTD receptor in the form of a fusion protein with alkaline phosphatase or peroxidase (Bacillus licheniformis, UniProt P12287); assay: Example 4: BlaR-CTD fusion protein with alkaline phosphatase or peroxidase, coated tube, milk; type: binding; conditions: absorbance at 405 nm, 47° C.
T2 construct: uses the BlaR-CTD receptor in the form of a fusion protein with alkaline phosphatase or peroxidase
Experimental: The test described in this example uses the BlaR-CTD receptor in the form of a fusion protein with alkaline phosphatase or peroxidase, and uses a support in the form of a coated tube.
In this example, polystyrene tubes with high protein absorption of the brand name NUNK (Maxisorp type) are used, which are treated with a reference antibiotic solution as indicated in Example 3.3.2.
7 picomol of recognition agent are incubated in the presence of 500 μl of milk for 5 minutes at 47° C. in an Eppendorf tube. […] The milk is then incubated for 2 minutes at 47° C. After removing the milk, the tube is washed twice with 1 ml of 1 M, pH 9.8 diethanolamine buffer, 0.5 mM MgCl2. […] The absorbance of the supernatant is then measured using a spectrophotometer whose wavelength is set at 405 nm.

[3] = target: T1, BlaR-CTD receptor; assay: 5-minute test: BlaR-CTD coupled to gold beads, membrane test device, milk; type: binding; conditions: test carried out in 5 minutes, 47° C.; positive when 1st band less intense than 2nd band
Experimental: as §1
6 samples of fresh milk containing 0; 2; 4; 6; 8 and 10 ppb of cloxacillin, respectively, are prepared. Each of these solutions is then analyzed in the following way.
as §2, with “for 3” for “for 7”
as §3, with “cloxacillin” for “cephapirin”
as §4

[4] = system: protein isolated from an antibiotic-sensitive microorganism, such as Bacillus stearothermophilus; conditions: Example 1 of European Patent Application 593 112; cited from earlier work

T1 sequence (P12287 354-601): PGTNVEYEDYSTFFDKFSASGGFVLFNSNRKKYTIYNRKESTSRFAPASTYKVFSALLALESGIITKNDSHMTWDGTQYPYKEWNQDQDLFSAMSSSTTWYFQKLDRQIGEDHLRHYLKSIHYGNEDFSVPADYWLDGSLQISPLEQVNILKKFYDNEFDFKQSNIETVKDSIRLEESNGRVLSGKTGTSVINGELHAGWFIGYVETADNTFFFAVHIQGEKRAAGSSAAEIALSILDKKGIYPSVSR
T2 sequence (P12287 354-601): as above

| SMILES | concentration detected in a sample of milk [1] [ppb] | concentration determined in milk [2] | concentration detected in a sample of milk [3] [ppb] | concentration detected [4] [ppb] | Intensity 1st band ([1]; 4 ppb cephapirin in milk) | Intensity 1st band ([1]; 6 ppb cephapirin in milk) | Intensity 1st band ([1]; 8 ppb cephapirin in milk) | Intensity 1st band ([1]; 10 ppb cephapirin in milk) | Intensity 1st band ([1]; 12 ppb cephapirin in milk) |
| --- | --- | --- | --- | --- | --- | --- | --- | --- | --- |
| CO/N=C(\C(=O)N[C@@H]1C(=O)N2C(C(=O)O)=C(CSC(=O)c3ccco3)CS[C@H]12)c1csc(N)n1 [ceftiofur] | 80 | less than 50 ppb | 100 | 5 |  |  |  |  |  |
| CC(=O)OCC1=C(C(=O)O)N2C(=O)[C@@H](NC(=O)CSc3ccncc3)[C@H]2SC1 [cephapirin] | 6 | less than 20 ppb | 16 | 5 | 6 | 5 | 4 | 3 | 3 |
| CC1(C)S[C@@H]2[C@H](NC(=O)Cc3ccccc3)C(=O)N2[C@H]1C(=O)O [penicillin G] | 3 | less than 5 ppb | 3 | ~5 |  |  |  |  |  |
